Source: US20230265151A1, “GIP/GLP1 CO-AGONIST COMPOUNDS” (priority 2020, published 2023)
Read-outs that look alike come from different tables or passages of the source. *1 amine or outer side, *2 acyl side, *3 side chain or, on linkers, in order; H or OH if unused. Where a SMILES comes first, the peptide text is derived from it. Side-chain parts run from the residue outwards. [ ]: non-standard residue; d: D form. The star is where a group is joined. αMePhe(2-F) = C[C@](N)(Cc1ccccc1F)C(=O)O; γGlu = O=C(O)[C@H](CCC(=O)[*:2])N[*:1]; C14 diacid = O=C(O)CCCCCCCCCCCCC(=O)*; αMeY = C[C@](N)(Cc1ccc(O)cc1)C(=O)O; 4Pal = N[C@@H](Cc1ccncc1)C(=O)O; αMeL = CC(C)C[C@](C)(N)C(=O)O; Orn = NCCC[C@H](N)C(=O)O; AEEA = NCCOCCOCC(=O)O; Aib = CC(C)(N)C(=O)O

How the values were obtained:
[1] = target: T1, human GLP-1 receptor (hGLP-1R) (Homo sapiens, UniProt P43220); assay: [125I]-GLP-1 binding, SPA with membranes of HEK293 cells expressing hGLP-1R; details: human GLP-1R; geometric mean (SEM, n); read-out: Binding Affinity Ki, nM (SEM, n) hGLP-1R
T1 construct: expressed in transfected cells; crude membranes

hGLP-1R = hGLP-1R (Homo sapiens, UniProt P43220); assay: Functional cAMP formation (HTRF) in HEK-293 clonal cells expressing hGLP-1R, 0.1% bovine casein, without or with 1.0% human serum albumin; assay type: cell-based; set-up: expressed in transfected cells; details: 37° C.; for EC50: read-out: hGLP-1R EC50, nM (SEM, n); for Emax: read-out: hGLP-1R Emax, % ± SEM
Outline: (§1)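 Cells were stimulated with peptide for 30 min at 37° C, then intracellular cAMP was measured by competitive HTRF (665/620 nm ratio) and converted to nM using a cAMP standard curve. Relative EC50 and Emax came from four-parameter logistic fits of percent maximal response against peptide concentration.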

hGCGR = target: T2, hGCGR (Homo sapiens, UniProt P47871); assay: Functional cAMP formation (HTRF) in HEK-293 clonal cells expressing hGCGR, 0.1% bovine casein, without or with 1.0% human serum albumin; assay type: cell-based; details: read-out: hGCGR EC50, nM (SEM, n)
T2 construct: expressed in transfected cells
Outline: as §1

hGIPR = target: T3, hGIPR (Homo sapiens, UniProt P48546); assay: Functional cAMP formation (HTRF) in HEK-293 clonal cells expressing hGIPR, 0.1% bovine casein, without or with 1.0% human serum albumin; assay type: cell-based; details: for EC50: read-out: hGIPR EC50, nM (SEM, n); for Emax: read-out: hGIPR Emax, % ± SEM
T3 construct: expressed in transfected cells
T3 sequence (P48546 22-466): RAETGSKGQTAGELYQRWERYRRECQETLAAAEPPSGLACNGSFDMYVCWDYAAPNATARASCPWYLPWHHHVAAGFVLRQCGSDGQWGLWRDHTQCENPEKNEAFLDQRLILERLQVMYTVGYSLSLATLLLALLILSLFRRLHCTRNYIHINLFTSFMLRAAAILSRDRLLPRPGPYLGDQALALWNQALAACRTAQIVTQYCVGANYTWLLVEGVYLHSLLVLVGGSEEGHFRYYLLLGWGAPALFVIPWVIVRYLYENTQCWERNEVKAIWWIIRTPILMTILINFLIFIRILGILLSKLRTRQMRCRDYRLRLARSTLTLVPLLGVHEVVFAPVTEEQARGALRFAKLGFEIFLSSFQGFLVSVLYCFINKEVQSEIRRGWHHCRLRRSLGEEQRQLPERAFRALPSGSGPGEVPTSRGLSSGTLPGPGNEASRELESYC
Outline: as §1

[2] = target: T4, human Gcg receptor (hGcgR) (Homo sapiens, UniProt P47871); assay: [125I]-Glucagon binding, SPA with membranes of HEK293 cells expressing hGcgR; details: human GcgR; geometric mean (SEM, n); read-out: Binding Affinity Ki, nM (SEM, n) hGCGR
T4 construct: expressed in transfected cells; crude membranes

[3] = 0.1% bovine casein and 1.0% human serum albumin, 37° C., geometric mean
[4] = cAMP, incubated at 37° C., 0.1% bovine casein (no human serum albumin), geometric mean
[5] = HEK293, cAMP, 0.1% bovine casein and 1.0% human serum albumin, percent of maximal response to GLP-1(7-36)NH2
[6] = cAMP, 0.1% bovine casein (no human serum albumin), geometric mean
[7] = cAMP, 37° C., 0.1% bovine casein (no human serum albumin), geometric mean
[8] = cAMP, 37° C., 0.1% bovine casein and 1.0% human serum albumin, geometric mean (SEM, n)
[9] = HEK293, cAMP, 37° C., 0.1% bovine casein and 1.0% human serum albumin, percent of maximal response to GIP(1-42)NH2
[10] = HEK293, cAMP, 0.1% bovine casein, percent of maximal response to GLP-1(7-36)NH2, arithmetic mean
[11] = cAMP, 0.1% bovine casein and 1.0% human serum albumin, geometric mean (SEM, n)

T2 sequence (P47871 26-477): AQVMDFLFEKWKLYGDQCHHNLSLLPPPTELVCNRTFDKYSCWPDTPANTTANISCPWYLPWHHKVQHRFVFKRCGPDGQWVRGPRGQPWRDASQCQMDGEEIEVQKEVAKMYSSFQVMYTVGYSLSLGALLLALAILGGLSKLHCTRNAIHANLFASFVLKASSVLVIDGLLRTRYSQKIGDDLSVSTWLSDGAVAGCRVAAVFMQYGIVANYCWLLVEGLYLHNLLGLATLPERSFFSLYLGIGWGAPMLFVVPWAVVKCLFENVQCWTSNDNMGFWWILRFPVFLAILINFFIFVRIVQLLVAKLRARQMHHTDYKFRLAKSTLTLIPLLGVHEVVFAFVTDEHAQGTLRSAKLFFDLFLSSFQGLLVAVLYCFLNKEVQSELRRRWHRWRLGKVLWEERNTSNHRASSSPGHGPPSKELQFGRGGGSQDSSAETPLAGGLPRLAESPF
T4 sequence (P47871 26-477): as above
Chain of hGLP-1R (P43220 24-463): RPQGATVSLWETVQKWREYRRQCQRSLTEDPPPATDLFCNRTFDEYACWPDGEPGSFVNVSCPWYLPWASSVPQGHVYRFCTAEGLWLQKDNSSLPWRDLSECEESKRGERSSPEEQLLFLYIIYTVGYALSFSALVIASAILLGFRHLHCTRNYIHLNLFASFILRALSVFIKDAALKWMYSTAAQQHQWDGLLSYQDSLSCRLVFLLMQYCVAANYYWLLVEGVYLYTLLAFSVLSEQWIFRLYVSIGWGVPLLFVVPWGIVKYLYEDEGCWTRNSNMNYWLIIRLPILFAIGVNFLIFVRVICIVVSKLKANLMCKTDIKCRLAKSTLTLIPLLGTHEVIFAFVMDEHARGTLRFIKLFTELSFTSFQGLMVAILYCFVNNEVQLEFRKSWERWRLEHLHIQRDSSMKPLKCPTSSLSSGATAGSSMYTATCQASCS
T1 sequence (P43220 24-463): as above

Row | SMILES | Ki [1] | EC50 (hGLP-1R; 0.1% bovine casein and 1.0% human serum albumin, geometric mean) | Emax (hGLP-1R; HEK293, 0.1% bovine casein and 1.0% human serum albumin, percent of maximal response to GLP-1(7-36)NH2) | Emax (hGLP-1R; HEK293, percent of maximal response to GLP-1(7-36)NH2, 0.1% bovine casein, arithmetic mean) | EC50 (hGCGR; [3]) | EC50 (hGCGR; [4]) | EC50 (hGIPR; [3]) | Emax (hGIPR; HEK293, 0.1% bovine casein and 1.0% human serum albumin, 37° C., percent of maximal response to GIP(1-42)NH2) | Emax (hGIPR; HEK293, percent of maximal response to GIP(1-42)NH2, 37° C., 0.1% bovine casein, arithmetic mean) | EC50 (hGIPR; [4]) | Ki [2] | Emax (hGLP-1R; [5]) | EC50 (hGLP-1R; [6]) | EC50 (hGCGR; [7]) | EC50 (hGCGR; [8]) | Emax (hGIPR; [9]) | EC50 (hGIPR; [7]) | EC50 (hGIPR; [8]) | Emax (hGLP-1R; [10]) | EC50 (hGLP-1R; [11])
1 | CC[C@H](C)[C@H](NC(=O)[C@H](CC(C)C)NC(=O)[C@](C)(Cc1ccc(O)cc1)NC(=O)[C@@H](CCC(=O)O)NC(=O)[C@@H](NC(=O)[C@H](Cc1ccccc1)NC(=O)[C@H](CCC(=O)O)NC(=O)C(C)(C)NC(=O)[C@H](CCC(N)=O)NC(=O)[C@H](C)NC(=O)[C@H](CCCCNC(=O)COCCOCCNC(=O)COCCOCCNC(=O)CC[C@H](NC(=O)CCCCCCCCCCCCC(=O)O)C(=O)O)NC(=O)[C@H](CCCN)NC(=O)[C@H](CC(=O)O)NC(=O)[C@H](CC(C)C)NC(=O)[C@](C)(CC(C)C)NC(=O)[C@@H](NC(=O)[C@H](CO)NC(=O)[C@H](Cc1ccncc1)NC(=O)[C@H](CC(=O)O)NC(=O)[C@H](CO)NC(=O)[C@@H](NC(=O)[C@](C)(Cc1ccccc1F)NC(=O)[C@@H](NC(=O)CNC(=O)[C@H](CCC(=O)O)NC(=O)C(C)(C)NC(=O)[C@@H](N)Cc1ccc(O)cc1)[C@@H](C)O)[C@@H](C)O)[C@@H](C)CC)[C@@H](C)CC)C(=O)N[C@@H](CCC(=O)O)C(=O)NCC(=O)NCC(=O)N[C@@H](CCCCNC(=O)COCCOCCNC(=O)COCCOCCNC(=O)CC[C@H](NC(=O)CCCCCCCCCCCCC(=O)O)C(=O)O)C(=O)N[C@@H](CO)C(=O)N[C@@H](CO)C(=O)NCC(=O)N[C@@H](C)C(=O)N1CCC[C@H]1C(=O)N1CCC[C@H]1C(=O)N1CCC[C@H]1C(=O)N[C@@H](CO)C(N)=O [Example 1] | 2.33 nM | 30.7 nM | 94.3 ± 4.39% | 97 ± 4.47% | > 9950 nM | > 9950 nM | 0.696 nM | 87.5 ± 3.24% | 90.2 ± 2.82% | 0.0145 nM | > 969 nM | – | – | – | – | – | – | – | – | –
2 | CC[C@H](C)[C@H](NC(=O)[C@H](CC(C)C)NC(=O)[C@](C)(Cc1ccc(O)cc1)NC(=O)[C@@H](CCC(=O)O)NC(=O)[C@@H](NC(=O)[C@H](Cc1ccccc1)NC(=O)[C@H](CCC(=O)O)NC(=O)C(C)(C)NC(=O)[C@H](CCC(N)=O)NC(=O)[C@H](C)NC(=O)[C@H](CCCCNC(=O)COCCOCCNC(=O)CC[C@H](NC(=O)CCCCCCCCCCCCC(=O)O)C(=O)O)NC(=O)[C@H](CCCN)NC(=O)[C@H](CC(=O)O)NC(=O)[C@H](CC(C)C)NC(=O)[C@](C)(CC(C)C)NC(=O)[C@@H](NC(=O)C(C)(C)NC(=O)[C@H](Cc1ccncc1)NC(=O)[C@H](CC(=O)O)NC(=O)[C@H](CO)NC(=O)[C@@H](NC(=O)[C@](C)(Cc1ccccc1F)NC(=O)[C@@H](NC(=O)CNC(=O)[C@H](CCC(=O)O)NC(=O)C(C)(C)NC(=O)[C@@H](N)Cc1ccc(O)cc1)[C@@H](C)O)[C@@H](C)O)[C@@H](C)CC)[C@@H](C)CC)C(=O)N[C@@H](CCCCNC(=O)COCCOCCNC(=O)CC[C@H](NC(=O)CCCCCCCCCCCCC(=O)O)C(=O)O)C(=O)NCC(=O)NCC(=O)N1CCC[C@H]1C(=O)N[C@@H](CO)C(=O)N[C@@H](CO)C(=O)NCC(=O)N[C@@H](C)C(=O)N1CCC[C@H]1C(=O)N1CCC[C@H]1C(=O)N1CCC[C@H]1C(=O)N[C@@H](CO)C(N)=O [Example 337] | – | – | – | – | – | – | – | – | – | – | > 957 nM | 100% | 0.444 nM | > 10100 nM | > 10100 nM | 86.8% | 0.0151 nM | 2.65 nM | – | –
3 | CC[C@H](C)[C@H](NC(=O)[C@H](CC(C)C)NC(=O)[C@](C)(Cc1ccc(O)cc1)NC(=O)[C@@H](CCC(=O)O)NC(=O)[C@@H](NC(=O)[C@H](Cc1ccccc1)NC(=O)[C@H](CCC(=O)O)NC(=O)C(C)(C)NC(=O)[C@H](CCC(N)=O)NC(=O)[C@H](C)NC(=O)[C@H](CCCCNC(=O)COCCOCCNC(=O)CC[C@H](NC(=O)CCCCCCCCCCCCC(=O)O)C(=O)O)NC(=O)[C@H](CCCN)NC(=O)[C@H](CC(=O)O)NC(=O)[C@H](CC(C)C)NC(=O)[C@](C)(CC(C)C)NC(=O)[C@@H](NC(=O)C(C)(C)NC(=O)[C@H](Cc1ccncc1)NC(=O)[C@H](CC(=O)O)NC(=O)[C@H](CO)NC(=O)[C@@H](NC(=O)[C@](C)(Cc1ccccc1F)NC(=O)[C@@H](NC(=O)CNC(=O)[C@H](CCC(=O)O)NC(=O)C(C)(C)NC(=O)[C@@H](N)Cc1ccc(O)cc1)[C@@H](C)O)[C@@H](C)O)[C@@H](C)CC)[C@@H](C)CC)C(=O)N[C@@H](CCC(=O)O)C(=O)NCC(=O)NCC(=O)N1CCC[C@H]1C(=O)N[C@@H](CO)C(=O)N[C@@H](CO)C(=O)NCC(=O)N[C@@H](C)C(=O)N1CCC[C@H]1C(=O)N1CCC[C@H]1C(=O)N1CCC[C@H]1C(=O)N[C@@H](CO)C(=O)N[C@@H](CCCCNC(=O)COCCOCCNC(=O)CC[C@H](NC(=O)CCCCCCCCCCCCC(=O)O)C(=O)O)C(N)=O [Example 338] | – | – | – | – | – | – | – | – | – | – | > 957 nM | – | 0.468 nM | > 10100 nM | > 10100 nM | 83.9% | 0.0157 nM | 1.24 nM | 109% | 36.6 nM
4 | CC[C@H](C)[C@H](NC(=O)[C@H](CC(C)C)NC(=O)[C@](C)(Cc1ccc(O)cc1)NC(=O)[C@@H](CCC(=O)O)NC(=O)[C@@H](NC(=O)[C@H](Cc1ccccc1)NC(=O)[C@H](CCCCNC(=O)COCCOCCNC(=O)COCCOCCNC(=O)CC[C@H](NC(=O)CCCCCCCCCCCCC(=O)O)C(=O)O)NC(=O)C(C)(C)NC(=O)[C@H](CCC(N)=O)NC(=O)[C@H](C)NC(=O)[C@H](CCC(N)=O)NC(=O)[C@H](CCCN)NC(=O)[C@H](CC(=O)O)NC(=O)[C@H](CC(C)C)NC(=O)[C@](C)(CC(C)C)NC(=O)[C@@H](NC(=O)C(C)(C)NC(=O)[C@H](Cc1ccncc1)NC(=O)[C@H](CC(=O)O)NC(=O)[C@H](CO)NC(=O)[C@@H](NC(=O)[C@](C)(Cc1ccccc1F)NC(=O)[C@@H](NC(=O)CNC(=O)[C@H](CCC(=O)O)NC(=O)C(C)(C)NC(=O)[C@@H](N)Cc1ccc(O)cc1)[C@@H](C)O)[C@@H](C)O)[C@@H](C)CC)[C@@H](C)CC)C(=O)N[C@@H](CCC(=O)O)C(=O)NCC(=O)NCC(=O)N1CCC[C@H]1C(=O)N[C@@H](CO)C(=O)N[C@@H](CO)C(=O)NCC(=O)N[C@@H](C)C(=O)N1CCC[C@H]1C(=O)N1CCC[C@H]1C(=O)N1CCC[C@H]1C(=O)N[C@@H](CO)C(=O)N[C@@H](CCCCNC(=O)COCCOCCNC(=O)COCCOCCNC(=O)CC[C@H](NC(=O)CCCCCCCCCCCCC(=O)O)C(=O)O)C(N)=O [Example 489] (H-Y[Aib]EGT[αMePhe(2-F)]TSD[4Pal][Aib]I[αMeL]LD[Orn]QAQ[Aib]K([AEEA-AEEA-γGlu-C14 diacid])FI[dE][αMeY]LIEGGPSSGAPPPSK([AEEA-AEEA-γGlu-C14 diacid])-NH2) | – | – | – | – | – | – | – | – | – | – | > 957 nM | 98.7% | 0.257 nM | > 10100 nM | > 9950 nM | 79.4% | 0.0131 nM | – | 112% | 13.5 nM
